The values that follow are results of earlier work, collected in PubChem BioAssay AID1259409 (Chemical Carcinogenesis Research Information System (CCRIS), 2018).

The subject of the series is rodent chemically induced tumor inhibition, incidence and multiplicity. Put plainly: CCRIS tumor inhibitor studies. From the text: The CCRIS database contains chemical records with carcinogenicity, mutagenicity, tumor promotion, and tumor inhibition test results. It was developed by the National Cancer Institute (NCI). Data are derived from studies cited in primary journals, current awareness tools, NCI reports, and other sources. Test results have been reviewed by experts in carcinogenesis and mutagenesis.
CCRIS provides historical information from the years 1985 - 2011. It is no longer updated.
This is an archive assay for CCRIS tumor inhibitor studies.

`O=C1O[C@H]([C@@H](O)CO)C(O)=C1O`: the “tumour outcome (control, treated, inhibition, significance)” value was 35%, 24%, 31%, not significant (Carcinogen: DIETHYLNITROSAMINE, 55-18-5, Dose [Inhibitor]: 0, 15 G/L IN DRINKING WATER FOR DURATION OF STUDY BEGINNING 1 D PRIOR TO FIRST CARCINOGEN DOSE (STUDY DURATION: 6 MO), Route [Inhibitor]: ORAL, Species: RAT, Strain/Sex: BD6/FEMALE, Target Tissue: Type of Lesion: ESOPHAGUS: TUMOR, Dose [Carcinogen]: 80 MG/KG BW 1/WK FOR 10 WK, Promoter: NONE USED); 100%, 92%, 8%, not significant (Carcinogen: DIETHYLNITROSAMINE, 55-18-5, Dose [Inhibitor]: 0, 15 G/L IN DRINKING WATER FOR DURATION OF STUDY BEGINNING 1 D PRIOR TO FIRST CARCINOGEN DOSE (STUDY DURATION: 6 MO), Route [Inhibitor]: ORAL, Species: RAT, Strain/Sex: BD6/FEMALE, Target Tissue: Type of Lesion: LIVER: TUMOR, Dose [Carcinogen]: 80 MG/KG BW 1/WK FOR 10 WK, Promoter: NONE USED); 35%, 28%, 20%, not significant (Carcinogen: DIETHYLNITROSAMINE, 55-18-5, Dose [Inhibitor]: 0, 15 G/L IN DRINKING WATER FOR DURATION OF STUDY BEGINNING 2 D POST CARCINOGEN TREATMENT (STUDY DURATION: 6 MO), Route [Inhibitor]: ORAL, Species: RAT, Strain/Sex: BD6/FEMALE, Target Tissue: Type of Lesion: ESOPHAGUS: TUMOR, Dose [Carcinogen]: 80 MG/KG BW 1/WK FOR 10 WK, Promoter: NONE USED); 100%, 100%, 0%, not significant (Carcinogen: DIETHYLNITROSAMINE, 55-18-5, Dose [Inhibitor]: 0, 15 G/L IN DRINKING WATER FOR DURATION OF STUDY BEGINNING 2 D POST CARCINOGEN TREATMENT (STUDY DURATION: 6 MO), Route [Inhibitor]: ORAL, Species: RAT, Strain/Sex: BD6/FEMALE, Target Tissue: Type of Lesion: LIVER: TUMOR, Dose [Carcinogen]: 80 MG/KG BW 1/WK FOR 10 WK, Promoter: NONE USED); 11/13 (85%), 14/29 (48%), 44%, p<0.05 (Carcinogen: DIETHYLSTILBESTROL, 56-53-1, Dose [Inhibitor]: 1 G/KG OR 2.5 G/KG OF DIET BEGINNING 2 D PRIOR TO FIRST CARCINOGEN IMPLANT AND CONTINUING FOR DURATION OF STUDY (STUDY D, Route [Inhibitor]: ORAL, Species: HAMSTER, Strain/Sex: SYRIAN/MALE, Target Tissue: Type of Lesion: KIDNEY: CARCINOMA, Dose [Carcinogen]: 90% OF 40 MG PELLET (OTHER 10% CHOLESTEROL) 2 D AFTER START OF AGENT TREATMENT AND AGAIN 3 MO LATER, Promoter: NONE USED); 100%, 100%, 0%, not significant (Carcinogen: DIETHYNITROSAMINE, 55-18-5, Dose [Inhibitor]: 0, 3 G/L IN DRINKING WATER FOR DURATION OF STUDY BEGINNING 2 D POST CARCINOGEN TREATMENT (STUDY DURATION: 6 MO), Route [Inhibitor]: ORAL, Species: RAT, Strain/Sex: BD6/FEMALE, Target Tissue: Type of Lesion: LIVER: TUMOR, Dose [Carcinogen]: 80 MG/KG BW 1/WK FOR 10 WK, Promoter: NONE USED). Also, the “tumour outcome (control, treated, inhibition, significance)” value is given as 9/18 (50%), 0/18 (0%), 100%, not calculated (Carcinogen: ETHYLUREA, 625-52-5, SODIUM NITRITE, 7632-00-0, Carcinogen: ETHYLUREA, 625-52-5, SODIUM NITRITE, 7632-00-0, Dose [Inhibitor]: 200 MG/KG BW ADMINISTERED INTRAGASTRICALLY ONCE ON D 15 OF GESTATION SIMULTANEOUSLY WITH CARCINOGEN TREATMENT (STUDY DUR, Route [Inhibitor]: TRANSPLACENTAL, Species: HAMSTER, Strain/Sex: SYRIAN/FEMALE, Target Tissue: Type of Lesion: PERIPHERAL NERVOUS SYSTEM: NEOPLASM, Dose [Carcinogen]: 200 MG ETHYLUREA/KG BW AND 100 MG SODIUM NITRITE/KG BW IG ONCE, Promoter: NONE USED); 6/18 (33%), 0/24 (0%), 100%, not calculated (Carcinogen: ETHYLUREA, 625-52-5, SODIUM NITRITE, 7632-00-0, Carcinogen: ETHYLUREA, 625-52-5, SODIUM NITRITE, 7632-00-0, Dose [Inhibitor]: 200 MG/KG BW ADMINISTERED INTRAGASTRICALLY ONCE ON D 15 OF GESTATION SIMULTANEOUSLY WITH CARCINOGEN TREATMENT (STUDY DUR, Route [Inhibitor]: TRANSPLACENTAL, Species: HAMSTER, Strain/Sex: SYRIAN/MALE, Target Tissue: Type of Lesion: PERIPHERAL NERVOUS SYSTEM: NEOPLASM, Dose [Carcinogen]: 200 MG ETHYLUREA/KG BW AND 100 MG SODIUM NITRITE/KG BW IG ONCE, Promoter: NONE USED); 6/12 (50%), 1/12 (8%), 84%, not calculated (Carcinogen: FIBERGLASS DUST, Dose [Inhibitor]: 400 MG/KG BW 1/3 D FOR 10 TREATMENTS STARTING 3 D POST CARCINOGEN TREATMENT (STUDY DURATION: 90 D), Route [Inhibitor]: INTRAPERITONEAL, Species: MOUSE, Strain/Sex: STRAIN-A/MALE, Target Tissue: Type of Lesion: LUNG: TUMOR, Dose [Carcinogen]: 300 MG IN 100 G OF STERILIZED PINE SAWDUST BEDDING FOR 30 D, Promoter: NONE USED); 20/30 (67%), 17/30 (57%), 15%, not significant (Carcinogen: N,N-DIETHYLNITROSAMINE, 55-18-5, Dose [Inhibitor]: 4.5 MG/100 KG DIET FOR 58 WK STARTING SIMULTANEOUSLY WITH CARCINOGEN AND PROMOTER TREATMENT AND CONTINUING FOR DURATION, Route [Inhibitor]: ORAL, Species: HAMSTER, Strain/Sex: SYRIAN/MALE, Target Tissue: Type of Lesion: LARYNX: TUMORS, Dose [Carcinogen]: 10 MG (TOTAL DOSE) IN 0.9% SALINE 1/WK FOR 12 WK, Promoter: CIGARETTE SMOKE); 14/29 (48%), 8/30 (27%), 44%, not significant (Carcinogen: N,N-DIETHYLNITROSAMINE, 55-18-5, Dose [Inhibitor]: 4.5 MG/100 KG DIET FOR 58 WK STARTING SIMULTANEOUSLY WITH CARCINOGEN AND PROMOTER TREATMENT AND CONTINUING FOR DURATION, Route [Inhibitor]: ORAL, Species: HAMSTER, Strain/Sex: SYRIAN/MALE, Target Tissue: Type of Lesion: NASAL CAVITY: TUMORS, Dose [Carcinogen]: 10 MG (TOTAL DOSE) IN 0.9% SALINE 1/WK FOR 12 WK, Promoter: CIGARETTE SMOKE); 30/30 (100%), 29/30 (97%), 3%, not significant (Carcinogen: N,N-DIETHYLNITROSAMINE, 55-18-5, Dose [Inhibitor]: 4.5 MG/100 KG DIET FOR 58 WK STARTING SIMULTANEOUSLY WITH CARCINOGEN AND PROMOTER TREATMENT AND CONTINUING FOR DURATION, Route [Inhibitor]: ORAL, Species: HAMSTER, Strain/Sex: SYRIAN/MALE, Target Tissue: Type of Lesion: TRACHEA: TUMORS, Dose [Carcinogen]: 10 MG (TOTAL DOSE) IN 0.9% SALINE 1/WK FOR 12 WK, Promoter: CIGARETTE SMOKE). For the same compound, the “tumour outcome (control, treated, inhibition, significance)” value (Carcinogen: N-(4-(5-NITRO-2-FURYL)-2-THIAZOLYL)FORMAMIDE, 24554-26-5, Dose [Inhibitor]: 250 MG/100 CC DRINKING WATER STARTING SIMULTANEOUSLY WITH CARCINOGEN TREATMENT AND CONTINUING FOR DURATION OF STUDY (STU, Route [Inhibitor]: ORAL, Species: MOUSE, Strain/Sex: C3H/FEMALE, Target Tissue: Type of Lesion: URINARY BLADDER: TRANSITIONAL CELL CARCINOMA, Dose [Carcinogen]: 0.1% IN DIET FOR DURATION OF STUDY, Promoter: NONE USED) is 41/41 (100%), 12/13 (92%), 8%, p<0.7.
